From patent US9802901B2, “Antibacterial 2H-indazole derivatives” (priority 2013, dated 2017)
In brackets after ≈: the same amount, converted by molar mass. Structures can show the parent of a compound that is named as a salt. Where two headings read alike, the source gives them in different places.

Experiments:
Experiment in all cases: Bacterial growth minimal inhibitory concentration (broth microdilution, CLSI M7-A7)
E. coli ATCC25922 = type: cell-based, Escherichia coli; settings: Escherichia coli
Method: (§1) Minimal Inhibitory Concentrations (MICs; mg/L) were determined in cation-adjusted Mueller-Hinton Broth by a microdilution method following the description given in “Methods for Dilution Antimicrobial Susceptibility Tests for Bacteria that Grow Aerobically”, Approved standard, 7th ed., Clinical and Laboratory Standards Institute (CLSI) Document M7-A7, Wayne, Pa., USA (2006).
(§2) All Example compounds, except the compound of Example 62, were tested against several Gram-positive and Gram-negative bacteria. […] K. pneumoniae A-651 and Acinetobacter baumannii T6474 are multiply-resistant strains (in particular quinolone-resistant), while E. coli ATCC25922 and P. aeruginosa ATCC27853 are quinolone-sensitive strains.

P. aeruginosa ATCC27853 = type: cell-based, Pseudomonas aeruginosa; settings: Pseudomonas aeruginosa
Method: as §1, §2

[1] = tested on: Acinetobacter baumannii T6474; type: cell-based; settings: Acinetobacter baumannii
Method: as §1, §2

K. pneumoniae A-651 = type: cell-based, Klebsiella pneumoniae; settings: Klebsiella pneumoniae
Method: as §1, §2

[2] = ATCC25922, cation-adjusted Mueller-Hinton Broth, microdilution, quinolone-sensitive strain, read-out: MIC for E. coli ATCC25922
[3] = ATCC27853, cation-adjusted Mueller-Hinton Broth, microdilution, quinolone-sensitive strain, read-out: MIC for P. aeruginosa ATCC27853
[4] = T6474, cation-adjusted Mueller-Hinton Broth, microdilution, multiply-resistant (quinolone-resistant) strain, read-out: MIC for A. Baumannii T6474
[5] = A651, cation-adjusted Mueller-Hinton Broth, microdilution, multiply-resistant (quinolone-resistant) strain, read-out: MIC for K. Pneumoniae A-651

SMILES | MIC (E. coli ATCC25922; [2]) [µg/mL] | MIC (P. aeruginosa ATCC27853; [3]) [µg/mL] | MIC [1, 4] [µg/mL] | MIC (K. pneumoniae A-651; [5]) [µg/mL] | MIC (E. coli ATCC25922; ATCC25922, read-out: MIC for E. coli ATCC25922) [µg/mL] | MIC (P. aeruginosa ATCC27853; ATCC27853, read-out: MIC for P. aeruginosa ATCC27853) [µg/mL] | MIC ([1]; T6474, read-out: MIC for A. Baumannii T6474) [µg/mL] | MIC (K. pneumoniae A-651; A651, read-out: MIC for K. Pneumoniae A-651) [µg/mL]
C[C@@](CCn1cc2cc(C#CC#CC3(N)COC3)ccc2n1)(C(=O)NO)S(C)(=O)=O [Example 48, (R)-4-(5-((3-aminooxetan-3-yl)buta-1,3-diyn-1-yl)-2H-indazol-2-yl)-N-hydroxy-2-methyl-2-(methylsulfonyl)butanamide formate] |  |  |  |  | 2 | 2 | > 32 | 4
C[C@@](CCn1cc2cc(C#Cc3ccc(C4(O)COC4)cc3)ccc2n1)(C(=O)NO)S(C)(=O)=O [Example 20, (R)—N-hydroxy-4-{5-[4-(3-hydroxy-oxetan-3-yl)-phenylethynyl]-indazol-2-yl}-2-methylsulfonyl-2-methyl-butanamide] | 0.25 (≈ 0.517 µM) | 0.5 (≈ 1.03 µM) | 0.5 (≈ 1.03 µM) | 0.125 (≈ 0.259 µM) |  |  |  | 
CC(CCn1cc2cc(CCc3ccccc3)ccc2n1)(C(=O)NO)S(C)(=O)=O (racemic) [RE5, (RS)—N-hydroxy-2-methylsulfonyl-2-methyl-4-(5-phenethyl-indazol-2-yl)-butanamide] | 0.5 (≈ 1.2 µM) | 8 (≈ 19.3 µM) | 0.25 (≈ 0.602 µM) | 2 (≈ 4.81 µM) |  |  |  | 
C[C@@](CCn1cc2c(F)c(C#Cc3ccc(C4(O)COC4)cc3)ccc2n1)(C(=O)NO)S(C)(=O)=O [Example 29, (R)-4-{4-fluoro-5-[4-(3-hydroxy-oxetan-3-yl)-phenylethynyl]-indazol-2-yl}-N-hydroxy-2-methylsulfonyl-2-methyl-butanamide] | 0.25 (≈ 0.498 µM) | 1 (≈ 1.99 µM) | 0.5 (≈ 0.997 µM) | 0.25 (≈ 0.498 µM) |  |  |  | 
C[C@@](CCn1cc2cc(C#Cc3ccc(NC(=O)CO)c(F)c3)ccc2n1)(C(=O)NO)S(C)(=O)=O [Example 45, (R)-4-(5-((3-fluoro-4-(2-hydroxyacetamido)phenyl)ethynyl)-2H-indazol-2-yl)-N-hydroxy-2-methyl-2-(methylsulfonyl)butanamide] | 0.25 (≈ 0.497 µM) | 1 (≈ 1.99 µM) | 8 (≈ 15.9 µM) | 1 (≈ 1.99 µM) |  |  |  | 
C[C@@](CCn1cc2cc(C#Cc3ccc(CN4CCOCC4)cc3)ccc2n1)(C(=O)NO)S(C)(=O)=O.O=CO [Example 7, (R)—N-hydroxy-2-methylsulfonyl-2-methyl-4-[5-(4-morpholin-4-ylmethyl-phenylethynyl)-indazol-2-yl]-butanamide formate] | 0.25 | 2 | 0.5 | 0.125 |  |  |  | 
C[C@@](CCn1cc2cc(C#CC#CC3CN(C(=O)CN)C3)ccc2n1)(C(=O)NO)S(C)(=O)=O [Example 84, (R)-4-(5-((1-glycylazetidin-3-yl)buta-1,3-diyn-1-yl)-2H-indazol-2-yl)-N-hydroxy-2-methyl-2-(methylsulfonyl)butanamide] | 1 (≈ 2.12 µM) | 0.5 (≈ 1.06 µM) | > 32 | 4 (≈ 8.48 µM) |  |  |  | 
C[C@@](CCn1cc2cc(C#Cc3cncnc3)ccc2n1)(C(=O)NO)S(C)(=O)=O [Example 59, (R)—N-hydroxy-2-methyl-2-(methylsulfonyl)-4-(5-(pyrimidin-5-ylethynyl)-2H-indazol-2-yl)butanamide] | 4 (≈ 9.67 µM) | 8 (≈ 19.3 µM) | 8 (≈ 19.3 µM) | 8 (≈ 19.3 µM) |  |  |  | 
CC(C)(N)CC#CC#Cc1ccc2nn(CC[C@](C)(C(=O)NO)S(C)(=O)=O)cc2c1 [Example 82, (R)-4-(5-(6-amino-6-methylhepta-1,3-diyn-1-yl)-2H-indazol-2-yl)-N-hydroxy-2-methyl-2-(methylsulfonyl)butanamide] | 4 (≈ 9.29 µM) | 4 (≈ 9.29 µM) | > 32 | 8 (≈ 18.6 µM) |  |  |  | 
C[C@@](CCn1cc2c(F)c(C#CC#CC3(O)COC3)ccc2n1)(C(=O)NO)S(C)(=O)=O [Example 38, (R)-4-{4-fluoro-5-[4-(3-hydroxy-oxetan-3-yl)-buta-1,3-diynyl]-indazol-2-yl}-N-hydroxy-2-methylsulfonyl-2-methyl-butanamide] | 0.5 (≈ 1.11 µM) | 1 (≈ 2.22 µM) | > 32 | 1 (≈ 2.22 µM) |  |  |  | 
C[C@@](CCn1cc2cc(C#Cc3ccc([C@@H](O)CO)cc3)ccc2n1)(C(=O)NO)S(C)(=O)=O [Example 26, (2R)-4-{5-[4-((R)-1,2-dihydroxy-ethyl)-phenylethynyl]-indazol-2-yl}-N-hydroxy-2-methylsulfonyl-2-methyl-butanamide] | 0.5 (≈ 1.06 µM) | 1 (≈ 2.12 µM) | 8 (≈ 17 µM) | 0.5 (≈ 1.06 µM) |  |  |  | 

Second part, led by results:

MIC (E. coli ATCC25922; [2]) [µg/mL] | MIC (P. aeruginosa ATCC27853; [3]) [µg/mL] | MIC [1, 4] [µg/mL] | MIC (K. pneumoniae A-651; [5]) [µg/mL] | SMILES | MIC (E. coli ATCC25922; ATCC25922, read-out: MIC for E. coli ATCC25922) [µg/mL] | MIC (P. aeruginosa ATCC27853; ATCC27853, read-out: MIC for P. aeruginosa ATCC27853) [µg/mL] | MIC ([1]; T6474, read-out: MIC for A. Baumannii T6474) [µg/mL] | MIC (K. pneumoniae A-651; A651, read-out: MIC for K. Pneumoniae A-651) [µg/mL]
0.063 (≈ 0.14 µM) | 2 (≈ 4.43 µM) | 0.25 (≈ 0.554 µM) | 0.063 (≈ 0.14 µM) | CSc1ccc(-c2ccc3nn(CC[C@](C)(C(=O)NO)S(C)(=O)=O)cc3c2)c(F)c1 [Example 9, (R)-4-[5-(2-fluoro-4-methylsulfanyl-phenyl)-indazol-2-yl]-N-hydroxy-2-methylsulfonyl-2-methyl-butanamide] |  |  |  | 
0.125 (≈ 0.271 µM) | 2 (≈ 4.33 µM) | 1 (≈ 2.17 µM) | 0.5 (≈ 1.08 µM) | COCCOc1ccc(-c2ccc3nn(CC[C@](C)(C(=O)NO)S(C)(=O)=O)cc3c2)cc1 [Example 52, (R)—N-hydroxy-4-(5-(4-(2-methoxyethoxy)phenyl)-2H-indazol-2-yl)-2-methyl-2-(methylsulfonyl)butanamide] |  |  |  | 
0.063 (≈ 0.139 µM) | 4 (≈ 8.82 µM) | 2 (≈ 4.41 µM) | 0.063 (≈ 0.139 µM) | COc1ccc(-c2cc3cn(CC[C@](C)(C(=O)NO)S(C)(=O)=O)nc3cc2F)c(F)c1 [Example 5, (R)-4-[6-fluoro-5-(2-fluoro-4-methoxy-phenyl)-indazol-2-yl]-N-hydroxy-2-methylsulfonyl-2-methyl-butanamide] |  |  |  | 
0.063 (≈ 0.131 µM) | 0.25 (≈ 0.519 µM) | 0.125 (≈ 0.26 µM) | 0.063 (≈ 0.131 µM) | C[C@@](CCn1cc2cc(C#Cc3ccc([C@H]4C[C@@H]4CO)cc3)ccc2n1)(C(=O)NO)S(C)(=O)=O [Example 42, (R)—N-hydroxy-4-(5-((4-((1S,2S)-2-(hydroxymethyl)cyclopropyl)phenyl)ethynyl)-2H-indazol-2-yl)-2-methyl-2-(methylsulfonyl)butanamide] |  |  |  | 
0.125 (≈ 0.3 µM) | 0.5 (≈ 1.2 µM) | > 32 | 0.15 (≈ 0.36 µM) | CN(C)CC#CC#Cc1ccc2nn(CC[C@](C)(C(=O)NO)S(C)(=O)=O)cc2c1 [Example 75, (R)-4-(5-(5-(dimethylamino)penta-1,3-diyn-1-yl)-2H-indazol-2-yl)-N-hydroxy-2-methyl-2-(methylsulfonyl)butanamide] |  |  |  | 
0.125 (≈ 0.265 µM) | 1 (≈ 2.12 µM) | 0.25 (≈ 0.53 µM) | 0.25 (≈ 0.53 µM) | C[C@@](CCn1cc2cc(C#Cc3ccc(OCCO)cc3)ccc2n1)(C(=O)NO)S(C)(=O)=O [Example 44, (R)—N-hydroxy-4-(5-((4-(2-hydroxyethoxy)phenyl)ethynyl)-2H-indazol-2-yl)-2-methyl-2-(methylsulfonyl)butanamide] |  |  |  | 
0.125 (≈ 0.302 µM) | 0.5 (≈ 1.21 µM) | > 32 | 0.125 (≈ 0.302 µM) | C[C@@](CCn1cc2cc(C#CC#CC3(N)CC3)ccc2n1)(C(=O)NO)S(C)(=O)=O [Example 65, (R)-4-(5-((1-aminocyclopropyl)buta-1,3-diyn-1-yl)-2H-indazol-2-yl)-N-hydroxy-2-methyl-2-(methylsulfonyl)butanamide] |  |  |  | 
0.063 | 0.25 | 2 | 0.125 | C[C@@](CCn1cc2cc(C#CC#C[C@H]3C[C@@H]3CO)ccc2n1)(C(=O)NO)S(C)(=O)=O.O=CO [Example 36, (R)—N-hydroxy-4-(5-(((1S,2S)-2-(hydroxymethyl)cyclopropyl)buta-1,3-diyn-1-yl)-2H-indazol-2-yl)-2-methyl-2-(methylsulfonyl)butanamide formate] |  |  |  | 
